Data: patent publication US12152048B2, “Nitroxoline prodrug and use thereof” (Jiangsu Yahong Meditech Co., Ltd., priority 2018, dated 2024)
≈ marks a conversion by molar mass, not a printed value.

Assays:
[1] = Determination of water solubility in phosphate buffer; type: physicochemical; settings: aqueous buffer, thermodynamic from solid; phosphate buffer pH 7.4, room temperature, 24 hours
How it was run: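 Thermodynamic solubility: compound concentration measured by LC/MS/MS in the vacuum filtrate after 24 h shaking at room temperature of 2 mg powder in 500 μL phosphate buffer at pH 1.2, 4.5, 6.8 or 7.4.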

[2] = Stability in mouse liver microsome; type: in vitro ADME; settings: 2 μM, 37° C., 30 minutes
[3] = Stability in dog plasma; type: in vitro ADME
[4] = Stability in liver microsome, overall conclusion (species not stated); type: in vitro ADME; settings: conclusion in words
[5] = Stability in dog liver microsome; settings: 2 μM, 37° C., 30 minutes
[6] = Stability in rat liver microsome; settings: 2 μM, 37° C., 30 minutes
[7] = Stability in human liver microsome; settings: 2 μM, 37° C., 30 minutes
[8] = Stability in plasma, overall conclusion (species not stated); settings: conclusion in words
[9] = Stability in mouse plasma; type: in vitro ADME
[10] = Stability in monkey plasma; type: in vitro ADME
[11] = Stability in rat plasma
[12] = Stability in human plasma

Row | solubility at 24 h [1] | Percentage of the compound remaining in mouse liver microsome ([2]; with coenzyme) | Percentage of the compound remaining in mouse liver microsome ([2]; without coenzyme) | Percentage of the compound remaining in plasma ([3]; 0 minute) | Percentage of the compound remaining in plasma ([3]; 37° C., 15 minutes) | Percentage of the compound remaining in plasma ([3]; 37° C., 30 minutes) | Percentage of the compound remaining in plasma ([3]; 37° C., 60 minutes) | Percentage of the compound remaining in plasma ([3]; 37° C., 120 minutes) | stability in microsome [4] | Percentage of the compound remaining in dog liver microsome ([5]; with coenzyme) | Percentage of the compound remaining in dog liver microsome ([5]; without coenzyme) | Percentage of the compound remaining in rat liver microsome ([6]; with coenzyme) | Percentage of the compound remaining in rat liver microsome ([6]; without coenzyme) | Percentage of the compound remaining in human liver microsome ([7]; with coenzyme) | Percentage of the compound remaining in human liver microsome ([7]; without coenzyme) | stability in plasma [8] | Percentage of the compound remaining in plasma ([9]; 0 minute) | Percentage of the compound remaining in plasma ([9]; 37° C., 15 minutes) | Percentage of the compound remaining in plasma ([9]; 37° C., 30 minutes) | Percentage of the compound remaining in plasma ([9]; 37° C., 60 minutes) | SMILES | also measured
1 | 45.5 µg/mL (≈ 136 µM) | 32.13% | 55.80% | 100.0% | 96.3% | 92.3% | 78.6% | 67.3% | high stability | 70.38% | 82.59% | 54.58% | 54.77% | 79.98% | 84.61% | high stability | – | – | – | – | COC(=O)CNC(=O)OCOc1ccc([N+](=O)[O-])c2cccnc12 [Compound 53, methyl 2-(((5-nitroquinolin-8-yloxy)methoxy)formamido)acetate] | –
2 | 134 µg/mL (≈ 403 µM) | 55.15% | 82.50% | 100.0% | 104.0% | 107.2% | 106.5% | 101.8% | high stability | 28.07% | 83.78% | 69.51% | 90.84% | 91.44% | 96.71% | high stability | 100.0% | 98.5% | 98.8% | 96.1% | O=C(OCOc1ccc([N+](=O)[O-])c2cccnc12)N1CCOCC1 [Compound 7, (5-nitroquinolin-8-yloxy)methyl morpholine-4-carboxylate] | Percentage of the compound remaining in plasma ([9]; 37° C., 120 minutes): 89.3%; Percentage of the compound remaining in plasma ([10]; 0 minute): 100.0%; Percentage of the compound remaining in plasma ([10]; 37° C., 15 minutes): 96.5%; Percentage of the compound remaining in plasma ([10]; 37° C., 30 minutes): 105.9%; Percentage of the compound remaining in plasma ([10]; 37° C., 60 minutes): 99.0%; Percentage of the compound remaining in plasma ([10]; 37° C., 120 minutes): 98.7%; Percentage of the compound remaining in plasma ([11]; 0 minute): 100.0%; Percentage of the compound remaining in plasma ([11]; 37° C., 15 minutes): 94.0%; Percentage of the compound remaining in plasma ([11]; 37° C., 30 minutes): 98.6%; Percentage of the compound remaining in plasma ([11]; 37° C., 60 minutes): 95.0%; Percentage of the compound remaining in plasma ([11]; 37° C., 120 minutes): 91.6%; Percentage of the compound remaining in plasma ([12]; 0 minute): 100.0%; Percentage of the compound remaining in plasma ([12]; 37° C., 15 minutes): 93.5%; Percentage of the compound remaining in plasma ([12]; 37° C., 30 minutes): 97.8%; Percentage of the compound remaining in plasma ([12]; 37° C., 60 minutes): 99.6%; Percentage of the compound remaining in plasma ([12]; 37° C., 120 minutes): 105.2%
3 | 985 µg/mL (≈ 2840 µM) | 51.08% | 116.52% | 100.0% | 111.5% | 111.9% | 114.6% | 105.9% | high stability | 38.76% | 114.53% | 75.71% | 99.73% | 109.46% | 118.37% | high stability | 100.0% | 97.7% | 95.4% | 98.9% | CN1CCN(C(=O)OCOc2ccc([N+](=O)[O-])c3cccnc23)CC1 [Compound 6, (5-nitroquinolin-8-yloxy)methyl 4-methylpiperazine-1-carboxylate] | Percentage of the compound remaining in plasma ([9]; 37° C., 120 minutes): 92.1%; Percentage of the compound remaining in plasma ([10]; 0 minute): 100.0%; Percentage of the compound remaining in plasma ([10]; 37° C., 15 minutes): 98.3%; Percentage of the compound remaining in plasma ([10]; 37° C., 30 minutes): 101.1%; Percentage of the compound remaining in plasma ([10]; 37° C., 60 minutes): 91.6%; Percentage of the compound remaining in plasma ([10]; 37° C., 120 minutes): 98.9%; Percentage of the compound remaining in plasma ([11]; 0 minute): 100.0%; Percentage of the compound remaining in plasma ([11]; 37° C., 15 minutes): 95.5%; Percentage of the compound remaining in plasma ([11]; 37° C., 30 minutes): 98.8%; Percentage of the compound remaining in plasma ([11]; 37° C., 60 minutes): 90.2%; Percentage of the compound remaining in plasma ([11]; 37° C., 120 minutes): 89.4%; Percentage of the compound remaining in plasma ([12]; 0 minute): 100.0%; Percentage of the compound remaining in plasma ([12]; 37° C., 15 minutes): 97.5%; Percentage of the compound remaining in plasma ([12]; 37° C., 30 minutes): 106.0%; Percentage of the compound remaining in plasma ([12]; 37° C., 60 minutes): 95.0%; Percentage of the compound remaining in plasma ([12]; 37° C., 120 minutes): 99.3%
